The results in this text go back to patent US20080145440A1, “Microparticle preparation and medical composition” (priority 2006, published 2008).

For series [1], the system named is Mouse-derived colon cancer (colon-26 adenocarcinoma) cells. Briefly: In vivo experiment of anticancer treatment. On the set-up: species or system BALB/c male mouse. Particulars: cancer-bearing mice. The protocol:
As an experimental animal, a six-week-old BALB/c male mouse (weight 25 g, Shimizu Laboratory Supplies Co., Ltd.) was selected. […] In the experiment, the same agent treatment was performed as in the toxicity experiment. Specifically, the experiment was conducted in the following methods:
Weight changes and survival rate were observed from the day of the administration.

The test system of series [2] is mouse-derived colon cancer cells (colon-26). Briefly: In vitro cellular toxicity experiment (CCK-8). Format: cell-based. Particulars: colon-26, 10 μg/ml, forty eight hour treatment. The protocol: Using mouse-derived colon cancer cells (colon-26), a toxicity of the microparticle to cancer cells was experimented. Specifically, the experiment was conducted according to the following method:
The colon-26 cells were disseminated on a 96 well-plate at 1′104 concentration and cultured for twenty four hours. […] Cellular toxicity was examined by measuring absorbency under 450 nm with a CCK-8 kit (Dojindo, Kumamoto, Japan), the CCK-8 kit measuring formazan substitution of tetrazolium based on an intercellular enzyme.

On to `N.N.[Cl][Pt][Cl]` [free CDDP, cis-dichlorodiammineplatinum (II)], for which, in series [1] (20 mg/kg of CDDP intraperitoneal), the “day of minimum weight after the administration” value is on record as “fifth day”. Further, in series [1] (intraperitoneal), the “anticancer effect, concentration difference 5 mg/kg vs 10 mg/kg” value was “no significant difference in the anticancer effect” and the “start of death from cancer after the administration” value is on record as “started to die of cancer after a fortieth day”. For the same compound, the cytostatic effect entry in series [2] was “approximately 50%”.
